We go through two compounds from PMC6515931, “The Efflux Mechanism of Fraxetin-O-Glucuronides in UGT1A9-Transfected HeLa Cells: Identification of Multidrug Resistance-Associated Proteins 3 and 4 (MRP3/4) as the Important Contributors” (Frontiers in Pharmacology, 2019).

Values joined by “and” are separate entries in the source; they are usually repeats but may differ in a detail not shown here. Identical values can stand only once. Like-named read-outs stand apart in the source and are kept apart here.

One may read the half-life as the time in which the quantity being followed falls by half. The term IC50 denotes the concentration that gives 50% inhibition.

One series relates to MRP2. More on the design: method as in Sjöstedt et al., 2016. The conditions noted are these: ref Sjöstedt et al., 2016; cited from earlier work.
In a further series the test system is HeLa1A9 cells. Put plainly: Toxicity toward HeLa1A9 cells during excretion experiments. The class given is cell-based, human. The note with it: within the experimental concentration range.
Another series has as its target α-glucosidase. Details: method as in Milella et al., 2016. The note with it: versus acarbose, a well-known α-glucosidase inhibitor; ref Milella et al., 2016; cited from earlier work.
Series [1] concerns the target T1, BCRP (Homo sapiens, UniProt Q9UNQ0).
T1 construct: BCRP, MRP1, MRP3, and MRP4 were detected in both wild-type HeLa and HeLa1A9 cells; endogenous in cells; host or cells: HeLa1A9 cells
T1 sequence (Q9UNQ0 1-655): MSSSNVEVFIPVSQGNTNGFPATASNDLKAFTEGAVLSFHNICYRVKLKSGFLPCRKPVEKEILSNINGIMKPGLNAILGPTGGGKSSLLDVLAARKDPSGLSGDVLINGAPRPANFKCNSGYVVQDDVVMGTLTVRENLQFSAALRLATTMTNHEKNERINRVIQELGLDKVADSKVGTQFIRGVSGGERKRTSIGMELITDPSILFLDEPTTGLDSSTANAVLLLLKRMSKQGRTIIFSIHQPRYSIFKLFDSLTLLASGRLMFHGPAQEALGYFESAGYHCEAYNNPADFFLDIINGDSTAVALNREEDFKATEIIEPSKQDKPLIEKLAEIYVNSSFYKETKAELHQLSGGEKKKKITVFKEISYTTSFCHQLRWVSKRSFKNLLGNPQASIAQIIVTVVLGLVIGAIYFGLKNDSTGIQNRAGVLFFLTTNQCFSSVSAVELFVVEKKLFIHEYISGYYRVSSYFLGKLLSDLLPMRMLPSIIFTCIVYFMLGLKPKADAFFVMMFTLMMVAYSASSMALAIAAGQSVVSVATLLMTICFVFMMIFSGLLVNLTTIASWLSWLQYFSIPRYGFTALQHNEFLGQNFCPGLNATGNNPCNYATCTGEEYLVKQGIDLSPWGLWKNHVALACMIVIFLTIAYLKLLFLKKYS
Briefly: shRNA-mediated partial silencing of BCRP in HeLa1A9 cells, glucuronide excretion. The conditions noted are these: fraxetin 10 μM. The class given is cell-based. The method, then: (§1) The HeLa1A9 cells were pretreated and incubated with fraxetin solutions as reported previously ([Jiang et al., 2011]). Before assays, the HeLa1A9 cells were washed twice with prewarmed (37°C) Hank’s balanced salt solution (HBSS; pH = 7.4). After that, fraxetin (10 μM) dissolved in 2 mL of HBSS was incubated with the HeLa1A9 cells. At each time point (30, 60, 90, and 120 min), 200 μL of the culture supernatant from each well was collected as samples, and an equal volume of a loading media was used to replenish each well. Next, the collected samples were each mixed with 100 μL ice-cold acetonitrile. The supernatants were subjected to UHPLC analysis after centrifugation (10 min at 13800 × g).
(§2) In glucuronide excretion assays, biological inhibition mainly including shRNA-mediated partial silencing of BCRP and MRPs in HeLa cells was usually performed to evaluate the role of each efflux transporter ([Quan et al., 2015]; [Sun et al., 2015]; [Qin et al., 2018a]). Established shRNA_BCRP, shRNA_MRP1, shRNA_MRP3, and shRNA_MRP4 plasmids were transiently transfected into HeLa1A9 cells to develop the stably shRNA-transfected cell lines, named HeLa1A9-BCRP-shRNA cells, HeLa1A9-MRP1-shRNA, HeLa1A9-MRP3-shRNA, and HeLa1A9-MRP4-shRNA cells, respectively. […]
(§3) In addition, the excretion rate of intracellular glucuronides was calculated using Equ. […]

On the set-up of series [2]: method as in Wang H. et al., 2016. The conditions noted are these: rats; after oral administration of fraxin 50 mg/kg; ref Wang H. et al., 2016; cited from earlier work.
Series [3] relates to UDP-glucuronosyltransferase 1A9 (UGT1A9). Details: method as in Xia et al., 2014. The note with it: ref Xia et al., 2014, cited from earlier work.
Series [4] deals with BCRP. More on the design: method as in Sjöstedt et al., 2016. The conditions noted are these: ref Sjöstedt et al., 2016; cited from earlier work.
The target in another series is T2, MRP1 (Homo sapiens, UniProt P33527).
T2 construct: BCRP, MRP1, MRP3, and MRP4 were detected in both wild-type HeLa and HeLa1A9 cells; endogenous in cells
T2 sequence (P33527 whole entry): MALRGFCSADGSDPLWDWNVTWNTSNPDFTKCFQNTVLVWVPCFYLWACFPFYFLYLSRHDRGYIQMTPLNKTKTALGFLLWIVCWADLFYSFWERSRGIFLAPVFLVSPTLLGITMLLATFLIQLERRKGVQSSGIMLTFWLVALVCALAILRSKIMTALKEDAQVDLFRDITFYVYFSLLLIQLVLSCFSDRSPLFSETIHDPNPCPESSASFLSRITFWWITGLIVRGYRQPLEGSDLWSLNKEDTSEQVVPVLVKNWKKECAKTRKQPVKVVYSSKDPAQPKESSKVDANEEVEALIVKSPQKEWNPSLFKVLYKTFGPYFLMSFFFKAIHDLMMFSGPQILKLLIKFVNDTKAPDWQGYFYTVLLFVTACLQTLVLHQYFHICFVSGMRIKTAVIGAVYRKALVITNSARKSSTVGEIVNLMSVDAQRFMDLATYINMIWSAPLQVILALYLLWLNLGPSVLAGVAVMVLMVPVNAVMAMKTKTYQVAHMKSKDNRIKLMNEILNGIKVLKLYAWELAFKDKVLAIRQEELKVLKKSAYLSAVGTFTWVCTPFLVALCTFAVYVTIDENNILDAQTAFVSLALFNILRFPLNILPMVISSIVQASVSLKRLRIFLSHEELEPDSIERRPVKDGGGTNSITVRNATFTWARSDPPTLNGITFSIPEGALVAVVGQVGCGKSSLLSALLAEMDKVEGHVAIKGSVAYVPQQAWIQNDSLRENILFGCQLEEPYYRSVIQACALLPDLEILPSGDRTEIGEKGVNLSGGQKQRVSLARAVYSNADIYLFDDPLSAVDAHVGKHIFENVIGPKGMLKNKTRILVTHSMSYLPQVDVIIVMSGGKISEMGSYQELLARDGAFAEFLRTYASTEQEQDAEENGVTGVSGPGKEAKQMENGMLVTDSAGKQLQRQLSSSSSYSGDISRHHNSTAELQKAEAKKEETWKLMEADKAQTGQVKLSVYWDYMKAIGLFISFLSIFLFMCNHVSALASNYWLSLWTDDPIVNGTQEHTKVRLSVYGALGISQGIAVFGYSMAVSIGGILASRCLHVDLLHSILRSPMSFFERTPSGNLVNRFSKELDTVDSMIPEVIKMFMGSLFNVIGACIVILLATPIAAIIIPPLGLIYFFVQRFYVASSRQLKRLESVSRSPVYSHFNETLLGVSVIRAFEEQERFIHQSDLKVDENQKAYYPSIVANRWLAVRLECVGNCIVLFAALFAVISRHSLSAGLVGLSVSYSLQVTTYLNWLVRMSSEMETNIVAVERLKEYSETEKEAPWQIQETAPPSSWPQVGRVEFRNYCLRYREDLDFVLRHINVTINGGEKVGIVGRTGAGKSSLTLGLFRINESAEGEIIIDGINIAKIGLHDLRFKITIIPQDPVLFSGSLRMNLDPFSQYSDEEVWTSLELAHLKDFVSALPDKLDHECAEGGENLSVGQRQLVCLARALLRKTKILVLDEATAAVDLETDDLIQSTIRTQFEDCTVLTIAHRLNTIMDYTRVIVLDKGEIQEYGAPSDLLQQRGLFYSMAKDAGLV
Put plainly: shRNA-mediated partial silencing of MRP1 in HeLa1A9 cells, glucuronide excretion. The note with it: fraxetin 10 μM. The class given is cell-based. The method, then: as §1, §2, §3

For the next series, the system named is cystathionine β-synthase. Details: method as in Thorson et al., 2013. The note with it: cystathionine β-synthase inhibitor; ref Thorson et al., 2013; cited from earlier work.
A further series deals with T3, HeLa1A9 cell lysate (Homo sapiens, UniProt O60656).
T3 sequence (O60656 26-530): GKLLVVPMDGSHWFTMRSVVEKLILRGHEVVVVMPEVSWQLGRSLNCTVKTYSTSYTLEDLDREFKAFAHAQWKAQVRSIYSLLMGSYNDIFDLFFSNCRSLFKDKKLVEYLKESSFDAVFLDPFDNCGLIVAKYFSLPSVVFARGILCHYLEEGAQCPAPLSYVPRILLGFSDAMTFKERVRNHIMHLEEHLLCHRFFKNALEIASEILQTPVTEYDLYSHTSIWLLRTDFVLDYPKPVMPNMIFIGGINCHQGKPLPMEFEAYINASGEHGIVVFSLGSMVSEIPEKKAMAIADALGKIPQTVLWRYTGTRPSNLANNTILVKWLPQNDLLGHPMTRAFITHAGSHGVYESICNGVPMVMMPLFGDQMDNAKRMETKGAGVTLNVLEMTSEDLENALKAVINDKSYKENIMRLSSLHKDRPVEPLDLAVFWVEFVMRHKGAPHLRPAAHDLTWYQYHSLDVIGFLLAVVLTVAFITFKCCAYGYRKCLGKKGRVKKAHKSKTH
Briefly: Glucuronidation kinetics by HeLa1A9 cell lysate. The note with it: metabolite propofol-G. The class given is in vitro ADME. The method, then: The incubation system was slightly modified on the basis of a previously published article ([Qin et al., 2018a]). […] After preincubation at 37°C for 5 min, UDPGA (3.5 mM) was added to the reaction system, and the mixture was incubated for another 30 min. These reactions were terminated by the addition of an equal volume of ice-cold acetonitrile. The mixed samples were centrifuged at 13800 × g for 10 min, and the supernatant was analyzed by ultra-high-performance liquid chromatography (UHPLC). All the experiments were conducted in triplicate.
The enzyme kinetic parameters were obtained by fitting appropriate kinetic models to the experimental data in GraphPad Prism V5 software (San Diego, CA, United States). The best model was selected based on visual inspection of the Eadie–Hofstee plots ([Qin et al., 2018b]). In brief, if the Eadie–Hofstee plot was linear, formation rates (V) of glucuronides at different substrate concentrations (C) were fitted to the standard equations (1): […]
Where Km is the Michaelis–Menten constant, and Vmax is the maximum rate of glucuronidation. The intrinsic clearance (CLint) was computed as Vmax/Km.

Consider `COc1cc2ccc(=O)oc2c(O)c1O` [fraxetin], for which the “inhibitory action on transporter” value in the series with MRP2 and in the series with BCRP [4] was “absence of an inhibitory action” throughout. In addition, the “toxicity toward HeLa1A9 cells” value with HeLa1A9 cells is “no significant toxicity”. For the same compound, the “half-maximal inhibitory concentration (IC50) compared with acarbose” value on α-glucosidase was “significantly lower”. For the same compound, the “changes in excretion rates, intracellular glucuronides and fmet values” on BCRP [1] and on MRP1 was “did not cause any changes” throughout. Further, the half-life in [2] is recorded as 11 h. For the same compound, the maximal plasma concentration in series [2] was 2250 ng/mL and ~11 μM. The CLint in [3] (formation of fraxetin-7-O-glucuronide by UGT1A9) is reported as 42 μL/min per milligram of protein; in series [3] (formation of fraxetin-8-O-glucuronide by UGT1A9) it was 300 μL/min per milligram of protein. In the series with cystathionine β-synthase, the IC50 is 134 µM.
With `CC(C)c1cccc(C(C)C)c1O` [propofol], the Vmax on HeLa1A9 cell lysate is listed as 3.2 ± 0.2 (^aaa) pmol/min/mg.
